pIC50: −log10 of the molar value. Read-outs that look alike come from different tables or passages of the source. Positions of bridges follow the written chain, without caps; N, C: chain ends. Non-standard residues stand in square brackets, D forms with d. Residues, ends and D or L forms follow the SMILES beside them. ξ: configuration not given here. Phe(3,4,5-F3) = N[C@@H](Cc1cc(F)c(F)c(F)c1)C(=O)O; Phe(4-CF3) = N[C@@H](Cc1ccc(C(F)(F)F)cc1)C(=O)O; Phe(F5) = N[C@@H](Cc1c(F)c(F)c(F)c(F)c1F)C(=O)O; Bip = N[C@@H](Cc1ccc(-c2ccccc2)cc1)C(=O)O; d(cisHyp) = O=C(O)[C@H]1C[C@@H](O)CN1; Bta = N[C@@H](Cc1csc2ccccc12)C(=O)O; Hyp = O=C(O)[C@@H]1C[C@@H](O)CN1; NMeF = CN[C@@H](Cc1ccccc1)C(=O)O; NMeNle = CCCC[C@H](NC)C(=O)O; NMeM = CN[C@@H](CCSC)C(=O)O; NMeA = CN[C@@H](C)C(=O)O; Orn = NCCC[C@H](N)C(=O)O; Dap = NC[C@H](N)C(=O)O; ξC = NC(CS)C(=O)O; Sar = CNCC(=O)O
Experiments:
Human PD-L1/PD-1 = target: T1, Human PD-L1/PD-1 (Homo sapiens, UniProt Q9NZQ7); assay: HTRF PD-1-Ig/PD-L1-His binding assay (human PD-L1)
T1 construct: made in house; host or cells: HEK293T
T1 sequence (Q9NZQ7 with tags, fused parts or gaps): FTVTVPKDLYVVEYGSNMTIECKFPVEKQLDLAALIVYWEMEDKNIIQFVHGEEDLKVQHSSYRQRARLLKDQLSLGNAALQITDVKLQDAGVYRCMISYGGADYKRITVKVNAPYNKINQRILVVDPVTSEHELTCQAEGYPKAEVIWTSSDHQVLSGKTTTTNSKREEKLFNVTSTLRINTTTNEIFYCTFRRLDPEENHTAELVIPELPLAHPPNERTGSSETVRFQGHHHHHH
Method in brief: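 Ig- and His-fused extracellular PD-1/PD-L1 binding in BSA/Tween-20 dPBS. HTRF with Eu anti-Ig (1 nM final) and APC anti-His (20 nM final).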

[1] = target: T2, LK35.2-hPD-L1 cells / PE-labeled PD-1-Ig (Homo sapiens, UniProt Q9NZQ7); assay: LK35.2-hPD-L1 cell binding high-content screening assay; format: cell-based
T2 construct: expressed in transfected cells; host or cells: LK35.2 mouse B cell line
T2 sequence (Q9NZQ7 19-290): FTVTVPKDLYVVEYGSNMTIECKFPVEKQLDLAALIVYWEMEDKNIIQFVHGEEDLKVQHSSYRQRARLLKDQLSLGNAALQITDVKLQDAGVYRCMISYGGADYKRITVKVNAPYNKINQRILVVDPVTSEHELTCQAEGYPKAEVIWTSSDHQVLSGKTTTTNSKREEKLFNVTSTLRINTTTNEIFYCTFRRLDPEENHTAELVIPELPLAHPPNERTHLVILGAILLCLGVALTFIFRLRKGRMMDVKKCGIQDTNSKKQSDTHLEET
Method in brief: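 Fluorescent PD-1-Ig binding to PD-L1-expressing LK35.2 cells, imaged after washing. Conditions: 1 nM PE-PD-1-Ig, 37 °C, 1 h, RPMI with 10% fetal calf serum.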

[2] = cluster symbol, read-out: HTRF IC50 cluster
[3] = cell binding assay, cell line not given, cluster symbol, read-out: CBA IC50 cluster
[4] = cluster symbol, cell line of CBA not given (LK35.2-hPD-L1 or 293T-hPD-L1), read-out: CBA IC50 cluster

Compound | pIC50 (Human PD-L1/PD-1; [2]) | pIC50 [1, 3] | pIC50 [1, 4] | pIC50 (Human PD-L1/PD-1; read-out: HTRF IC50 value) | pIC50 ([1]; cell line of CBA not given (LK35.2-hPD-L1 or 293T-hPD-L1), read-out: CBA IC50 value)
CCCC[C@H]1C(=O)N[C@@H](CCCNC(=N)N)C(=O)NC(C(=O)NCC(N)=O)CSCC(=O)N[C@@H](Cc2ccc(O)cc2)C(=O)N(C)[C@@H](C)C(=O)N[C@@H](CC(N)=O)C(=O)N2CCC[C@H]2C(=O)N[C@@H](CO)C(=O)N[C@@H](CC(C)C)C(=O)N2C[C@H](O)C[C@H]2C(=O)N[C@@H](Cc2c[nH]c3ccccc23)C(=O)N[C@@H](CO)C(=O)N[C@@H](Cc2c[nH]c3ccccc23)C(=O)N(C)[C@@H](CCSC)C(=O)N1C (stereo partly shown) [Example 9100] ({CH2CO}-Y[NMeA]NPSL[Hyp]WSW[NMeM][NMeNle]R[ξC]G-NH2; thioether N-14) | 8.17 to 9.41 | 8.33 to 9.80 |  |  | 
CCCC[C@H]1C(=O)N(C)[C@@H](CCCC)C(=O)N[C@@H](CCC(=O)O)C(=O)N[C@H](C(=O)NCC(N)=O)CSCC(=O)N[C@@H](Cc2ccc(O)cc2)C(=O)N(C)[C@@H](C)C(=O)N[C@@H](CC(N)=O)C(=O)N2CCC[C@H]2C(=O)N[C@@H](Cc2c[nH]cn2)C(=O)N[C@@H](CCC(N)=O)C(=O)N2C[C@H](O)C[C@H]2C(=O)N[C@@H](Cc2c[nH]c3ccccc23)C(=O)N[C@@H](CO)C(=O)N[C@@H](Cc2c[nH]c3ccccc23)C(=O)N1C [Example 5126] ({CH2CO}-Y[NMeA]NPHQ[Hyp]WSW[NMeNle][NMeNle]ECG-NH2; thioether N-14) | 8.17 to 9.41 | 7.14 to 8.32 |  |  | 
CCCC[C@H]1C(=O)N(C)[C@@H](CCSC)C(=O)N[C@@H](CCCNC(=N)N)C(=O)NC(C(=O)NCC(N)=O)CSCC(=O)N[C@@H](Cc2ccc(O)cc2)C(=O)N(C)[C@@H](C)C(=O)N[C@@H](CC(N)=O)C(=O)N2CCC[C@H]2C(=O)N[C@@H](Cc2cnc[nH]2)C(=O)N[C@@H](CC(C)C)C(=O)N2CCC[C@H]2C(=O)N[C@@H](Cc2c[nH]c3ccccc23)C(=O)N[C@@H](CO)C(=O)N[C@@H](Cc2csc3ccccc23)C(=O)N1C (stereo partly shown) [Example 9022] ({CH2CO}-Y[NMeA]NPHLPWS[Bta][NMeNle][NMeM]R[ξC]G-NH2; thioether N-14) | 8.17 to 9.41 | 8.33 to 9.80 |  |  | 
CCCC[C@H]1C(=O)N(C)CC(=O)N[C@@H](CC(=O)O)C(=O)N[C@@H](C(C)C)C(=O)N(C)[C@@H](Cc2ccccc2)C(=O)N[C@@H](Cc2ccc(O)cc2)C(=O)N(C)CC(=O)N[C@@H](Cc2c[nH]c3ccccc23)C(=O)N[C@@H](Cc2ccc(O)cc2)C(=O)N[C@@H](CC(C)C)C(=O)N[C@H](C(=O)NCC(N)=O)CSCC(=O)N[C@@H](Cc2ccc(C(F)(F)F)cc2)C(=O)N(C)[C@@H](Cc2ccccc2)C(=O)N1C [Example 3093] ({CH2CO}-[Phe(4-CF3)][NMeF][NMeNle][Sar]DV[NMeF]Y[Sar]WYLCG-NH2; thioether N-13) | < 7.52 |  | 7.14 to 8.32 |  | 
CCCC[C@H]1C(=O)N[C@@H](CCCNC(=N)N)C(=O)NC(C(=O)NCC(N)=O)CSCC(=O)N[C@@H](Cc2ccc(O)cc2)C(=O)N(C)[C@@H](C)C(=O)N[C@@H](CC(N)=O)C(=O)N2CCC[C@H]2C(=O)N[C@@H](Cc2cnc[nH]2)C(=O)N[C@@H](CO)C(=O)N2CCC[C@H]2C(=O)N[C@@H](Cc2c[nH]c3ccccc23)C(=O)N[C@@H](CO)C(=O)N[C@@H](Cc2csc3ccccc23)C(=O)N(C)[C@@H](CCSC)C(=O)N1C (stereo partly shown) [Example 9112] ({CH2CO}-Y[NMeA]NPHSPWS[Bta][NMeM][NMeNle]R[ξC]G-NH2; thioether N-14) | 8.17 to 9.41 | 7.14 to 8.32 |  |  | 
CCCC[C@H]1C(=O)N(C)[C@@H](CCCC)C(=O)N[C@@H](CCCNC(=N)N)C(=O)N[C@H](C(=O)NCC(N)=O)CSCC(=O)N[C@@H](Cc2ccc(O)cc2)C(=O)N(C)[C@@H](C)C(=O)N[C@@H](CC(N)=O)C(=O)N2CCC[C@H]2C(=O)N[C@@H](CN)C(=O)N[C@@H](CC(C)C)C(=O)N2C[C@H](O)C[C@H]2C(=O)N[C@@H](Cc2c[nH]c3ccccc23)C(=O)N[C@@H](CO)C(=O)N[C@@H](Cc2c[nH]c3ccccc23)C(=O)N1C [Example 1114] ({CH2CO}-Y[NMeA]NP[Dap]L[Hyp]WSW[NMeNle][NMeNle]RCG-NH2; thioether N-14) | 7.52 to 8.17 |  | 8.33 to 9.80 |  | 
CCCC[C@H]1C(=O)N(C)CC(=O)N[C@@H](CC(=O)O)C(=O)N[C@@H](C(C)C)C(=O)N(C)[C@@H](Cc2ccccc2)C(=O)N[C@@H](Cc2ccc(O)cc2)C(=O)N(C)CC(=O)N[C@@H](Cc2c[nH]c3ccccc23)C(=O)N[C@@H](Cc2ccc(O)cc2)C(=O)N[C@@H](CC(C)C)C(=O)N[C@H](C(=O)NCC(=O)O)CSCC(=O)N[C@@H](Cc2ccccc2)C(=O)N(C)[C@@H](Cc2ccccc2)C(=O)N1C [Example 3517] (HELM PEPTIDE1{[O=C(C[*:3])[*:2]].F.[meF].[CCCC[C@@H](C(=O)[*:2])N(C)[*:1]].[Sar].D.V.[meF].Y.[Sar].W.Y.L.C.G}$PEPTIDE1,PEPTIDE1,1:R3-14:R3$$$V2.0) | < 7.52 | < 7.13 |  |  | 
CCCC[C@H]1C(=O)N(C)[C@@H](CCCC)C(=O)N[C@@H](CCCNC(=N)N)C(=O)N[C@H](C(=O)NCC(N)=O)CSCC(=O)N[C@@H](Cc2ccccc2)C(=O)N(C)[C@@H](C)C(=O)N[C@@H](CC(N)=O)C(=O)N2CCC[C@H]2C(=O)N[C@@H](Cc2cnc[nH]2)C(=O)N[C@@H](CC(C)C)C(=O)N(C)CC(=O)N[C@@H](Cc2c[nH]c3ccccc23)C(=O)N[C@@H](CCCN)C(=O)N[C@@H](Cc2c[nH]c3ccccc23)C(=O)N1C [Example 1070] ({CH2CO}-F[NMeA]NPHL[Sar]W[Orn]W[NMeNle][NMeNle]RCG-NH2; thioether N-14) | 7.52 to 8.17 |  | 7.14 to 8.32 |  | 
CCCC[C@H]1C(=O)N(C)CC(=O)N[C@@H](CC(N)=O)C(=O)N[C@@H](C(C)C)C(=O)N(C)[C@@H](Cc2ccccc2)C(=O)N[C@@H](Cc2ccc(O)cc2)C(=O)N(C)CC(=O)N[C@@H](Cc2c[nH]c3ccccc23)C(=O)N[C@@H](Cc2ccc(O)cc2)C(=O)N[C@@H](CCCN)C(=O)N[C@H](C(=O)NCC(N)=O)CSCC(=O)N[C@@H](Cc2ccccc2)C(=O)N[C@@H](Cc2ccc(-c3ccccc3)cc2)C(=O)N1C [Example 3611] ({CH2CO}-F[Bip][NMeNle][Sar]NV[NMeF]Y[Sar]WY[Orn]CG-NH2; thioether N-13) | < 7.52 | < 7.13 |  |  | 
CCCC[C@H]1C(=O)N(C)CC(=O)N[C@@H](CC(=O)O)C(=O)N[C@@H](C(C)C)C(=O)N(C)[C@@H](Cc2ccccc2)C(=O)N[C@@H](Cc2ccc(O)cc2)C(=O)N(C)CC(=O)N[C@@H](Cc2c[nH]c3ccccc23)C(=O)N[C@@H](Cc2c(F)c(F)c(F)c(F)c2F)C(=O)N[C@@H](CC(C)C)C(=O)N[C@H](C(=O)NCC(N)=O)CSCC(=O)N[C@@H](Cc2ccccc2)C(=O)N(C)[C@@H](Cc2ccccc2)C(=O)N1C [Example 3080] ({CH2CO}-F[NMeF][NMeNle][Sar]DV[NMeF]Y[Sar]W[Phe(F5)]LCG-NH2; thioether N-13) |  |  |  | < 5.00 | < 5.00
CCCC[C@H]1C(=O)N2C[C@H](O)C[C@@H]2C(=O)N[C@@H](CC(=O)O)C(=O)N[C@@H](C(C)C)C(=O)N(C)[C@@H](Cc2ccccc2)C(=O)N[C@@H](Cc2ccc(O)cc2)C(=O)N2CCC[C@@H]2C(=O)N[C@@H](Cc2c[nH]c3ccccc23)C(=O)N[C@@H](Cc2ccc(O)cc2)C(=O)N[C@@H](CC(C)C)C(=O)N[C@H](C(=O)NCC(N)=O)CSCC(=O)N[C@@H](Cc2cc(F)c(F)c(F)c2)C(=O)N(C)[C@@H](Cc2ccccc2)C(=O)N1C [Example 3183] ({CH2CO}-[Phe(3,4,5-F3)][NMeF][NMeNle][d(cisHyp)]DV[NMeF]Y[dP]WYLCG-NH2; thioether N-13) | 8.17 to 9.41 |  | 8.33 to 9.80 |  | 
